This is an account of results in patent publication US20110098352A1, “N,N-DISUBSTITUTED AMINOALKYLBIPHENYL ANTAGONISTS OF PROSTAGLANDIN D2 RECEPTORS” (AMIRA PHARMACEUTICALS, INC., priority 2008, published 2011).

The target in one experiment is T1, human DP1 receptor (Homo sapiens, UniProt Q13258).
T1 construct: tissue Biological Specialty Corporation; host or cells: human platelets, membranes
T1 sequence (Q13258 1-359): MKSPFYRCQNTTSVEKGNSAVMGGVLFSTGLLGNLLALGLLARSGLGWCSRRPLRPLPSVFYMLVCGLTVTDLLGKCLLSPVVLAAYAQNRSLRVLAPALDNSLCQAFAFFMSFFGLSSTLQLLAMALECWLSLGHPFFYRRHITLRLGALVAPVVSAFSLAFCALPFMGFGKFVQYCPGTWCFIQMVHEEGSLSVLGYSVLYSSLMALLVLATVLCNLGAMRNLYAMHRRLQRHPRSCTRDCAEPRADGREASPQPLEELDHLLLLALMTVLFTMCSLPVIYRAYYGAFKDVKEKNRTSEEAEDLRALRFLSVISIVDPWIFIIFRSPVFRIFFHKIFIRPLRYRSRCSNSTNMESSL
Briefly: DP1 radioligand membrane binding assay using [3H]BWA868C. The following applies: [3H]BWA868C binding, human platelet membranes; read-out: hDP1.

A further experiment has as its target T2, human DP2 receptor (Homo sapiens, UniProt Q9Y5Y4).
T2 construct: expressed in transfected cells
T2 sequence (Q9Y5Y4 1-395): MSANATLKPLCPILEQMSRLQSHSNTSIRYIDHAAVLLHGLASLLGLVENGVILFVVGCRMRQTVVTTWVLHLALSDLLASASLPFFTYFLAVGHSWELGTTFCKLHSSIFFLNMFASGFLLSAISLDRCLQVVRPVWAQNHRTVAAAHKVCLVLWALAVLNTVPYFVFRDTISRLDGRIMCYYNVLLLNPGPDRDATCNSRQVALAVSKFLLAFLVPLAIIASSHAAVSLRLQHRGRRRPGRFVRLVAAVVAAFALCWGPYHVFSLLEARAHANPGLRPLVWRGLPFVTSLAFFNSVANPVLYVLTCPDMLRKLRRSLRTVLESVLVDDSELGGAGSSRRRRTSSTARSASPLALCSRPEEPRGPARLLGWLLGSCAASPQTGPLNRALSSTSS
Briefly: DP2/CRTH2 radioligand binding assay using [3H]PGD2. The following applies: [3H]PGD2 binding, membranes of HEK293 cells expressing recombinant human DP2; read-out: hDP2. An outline of the steps:
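HEK293 membranes with stable recombinant human DP2, incubated with 1 nM [3H]PGD2 and compound 60 min at room temperature in pH 7.4 HEPES/MnCl2/EDTA buffer, with or without 0.2% human serum albumin.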

For experiment [1], the target named is T3, recombinant human CRTH2 receptor (Homo sapiens, UniProt Q9Y5Y4).
T3 construct: expressed in transfected cells
T3 sequence (Q9Y5Y4 1-395): T2 sequence (Q9Y5Y4 1-395)
Briefly: GTPγS binding assay. It counts as biochemical. The following applies: +HSA; CHO cell membranes, 80 nM PGD2; read-out: hDP2 GTPγS μM (+HSA). How it is done: The ability of a compound to inhibit binding of GTP to DP2 is assessed via a membrane GTPγS assay. CHO cells stably expressing the recombinant human CRTH2 receptor are resuspended in 10 mM Hepes, 7.4 containing 1 mM DTT, lysed and centrifuged at 75,000×g to pellet the membranes. The membranes are resuspended in 10 mM Hepes, 7.4 containing 1 mM DTT and 10% glycerol. […] The reactions are terminated by rapid filtration through Whatman GF/B glass fibre filter plates. The filter plates are washed 3 times with 1 ml cold Assay Buffer and dried. Scintillant is then added to the plates and the radioactivity retained on the filters is determined on a Packard TopCount (Perkin Elmer). Specific binding is determined as total radioactive binding minus non-specific binding in the absence of the ligand (80 nM PGD2). IC50s were determined using Graphpad prism analysis of drug titration curves.
Background: GTPγS is a poorly hydrolysed GTP analogue; its binding reports G protein activation.

Take `CCN(Cc1cc(C(F)(F)F)ccc1-c1cc(CC(=O)O)ccc1OC)C(=O)COC` [Compound 1-46, (2′-{[Ethyl-(2-methoxy-acetyl)-amino]-methyl}-6-methoxy-4′-trifluoromethyl-biphenyl-3-yl)-acetic acid]: the IC50 on human DP1 receptor was more than 1000 nM; at human DP2 receptor, less than 300 nM; in experiment [1] it was less than 0.3 µM.

As to `CCN(Cc1cc(C(F)(F)F)ccc1-c1cc(CC(=O)O)ccc1OC)C(=O)COc1ccccc1` [Compound 1-48, (2′-{[Ethyl-(2-phenoxy-acetyl)-amino]-methyl}-6-methoxy-4′-trifluoromethyl-biphenyl-3-yl)-acetic acid], the IC50 is more than 1000 nM on human DP1 receptor, less than 300 nM on human DP2 receptor and less than 0.3 µM in experiment [1].

Regarding `CCN(Cc1cc(C(F)(F)F)ccc1-c1cc(CC(=O)O)ccc1OC)C(=O)COCc1ccccc1` [Compound 1-92, (2′-{[(2-Benzyloxy-acetyl)-ethyl-amino]-methyl}-6-methoxy-4′-trifluoromethyl-biphenyl-3-yl)-acetic acid], the IC50 on human DP1 receptor is more than 1000 nM; on human DP2 receptor it was less than 300 nM; in experiment [1] it was less than 0.3 µM.

Take `CCN(Cc1cc(C(F)(F)F)ccc1-c1cc(CC(=O)O)ccc1OC)C(=O)COc1ccc(Cl)cc1` [Compound 1-93, [2′-({[2-(4-Chloro-phenoxy)-acetyl]-ethyl-amino}-methyl)-6-methoxy-4′-trifluoromethyl-biphenyl-3-yl]-acetic acid]: the IC50 at human DP1 receptor was more than 1000 nM; at human DP2 receptor, less than 300 nM; in experiment [1], less than 0.3 µM.

Turning to `CCN(Cc1ccccc1)C(=O)N(CC)Cc1cc(C(F)(F)F)ccc1-c1cc(CC(=O)O)ccc1OC` [Compound 1-94, [2′-(3-Benzyl-1,3-diethyl-ureidomethyl)-6-methoxy-4′-trifluoromethyl-biphenyl-3-yl]-acetic acid], the IC50 at human DP1 receptor was more than 1000 nM; on human DP2 receptor, less than 300 nM; in experiment [1], less than 0.3 µM.

Regarding `CCN(Cc1cc(C(F)(F)F)ccc1-c1cc(CC(=O)O)ccc1OC)C(=O)NCc1ccccc1` [Compound 1-96, [2′-(3-Benzyl-1-ethyl-ureidomethyl)-6-methoxy-4′-trifluoromethyl-biphenyl-3-yl]-acetic acid], the IC50 on human DP1 receptor was more than 1000 nM; at human DP2 receptor, less than 300 nM; in experiment [1] it was less than 0.3 µM.

In the case of `CCN(Cc1cc(C(F)(F)F)ccc1-c1cc(CC(=O)O)ccc1Cl)C(=O)OCc1ccccc1` [Compound 1-110], the IC50 on human DP1 receptor was more than 1000 nM; on human DP2 receptor, less than 300 nM; in experiment [1], less than 0.3 µM.

As for `CCN(Cc1cc(C(F)(F)F)ccc1-c1cc(CC(=O)O)ccc1OC)C(=O)C(C)(C)Oc1ccc(Cl)cc1` [Compound 1-118, [2′-({[2-(4-Chloro-phenoxy)-2-methyl-propionyl]-ethyl-amino}-methyl)-6-methoxy-4′-trifluoromethyl-biphenyl-3-yl]-acetic acid], the IC50 is more than 1000 nM on human DP1 receptor, less than 300 nM on human DP2 receptor and less than 0.3 µM in experiment [1].

Consider `CCOc1ccc(CC(=O)O)cc1-c1ccc(C(F)(F)F)cc1CN(CC)C(=O)OCc1ccccc1` [Compound 1-129], for which the IC50 at human DP1 receptor is more than 1000 nM; on human DP2 receptor, less than 300 nM; in experiment [1], less than 0.3 µM.

In the case of `CCN(Cc1cc(F)ccc1-c1cc(CC(=O)O)ccc1OC)C(=O)C1CC1` [Compound 1-186, {2′-[(Cyclopropanecarbonyl-ethyl-amino)-methyl]-4′-fluoro-6-methoxy-biphenyl-3-yl}-acetic acid], the IC50 at human DP1 receptor was more than 1000 nM; on human DP2 receptor it was less than 300 nM; in experiment [1], less than 0.3 µM.

For the molecule `O=C(O)CCn1c2c(c3ccccc31)C[C@H](NS(=O)(=O)c1ccc(F)cc1)CC2` [Ramatroban, reference compound], the values for the IC50 (on human DP1 receptor; on human DP2 receptor; in experiment [1]) were more than 1000 nM, 300 to 1000 nM and 0.3 to 1 µM, respectively.
